From ChEMBL document CHEMBL2346622, “Novel tacrine-related drugs as potential candidates for the treatment of Alzheimer's disease” (Bioorg Med Chem Lett, 2013)
pIC50: −log10 of the molar value.

Experiments:
[1] = target: T1, Acetylcholinesterase (Rattus norvegicus) (UniProt P37136); experiment: (§1) Inhibition of rat brain acetylcholinesterase
T1 sequence (whole entry): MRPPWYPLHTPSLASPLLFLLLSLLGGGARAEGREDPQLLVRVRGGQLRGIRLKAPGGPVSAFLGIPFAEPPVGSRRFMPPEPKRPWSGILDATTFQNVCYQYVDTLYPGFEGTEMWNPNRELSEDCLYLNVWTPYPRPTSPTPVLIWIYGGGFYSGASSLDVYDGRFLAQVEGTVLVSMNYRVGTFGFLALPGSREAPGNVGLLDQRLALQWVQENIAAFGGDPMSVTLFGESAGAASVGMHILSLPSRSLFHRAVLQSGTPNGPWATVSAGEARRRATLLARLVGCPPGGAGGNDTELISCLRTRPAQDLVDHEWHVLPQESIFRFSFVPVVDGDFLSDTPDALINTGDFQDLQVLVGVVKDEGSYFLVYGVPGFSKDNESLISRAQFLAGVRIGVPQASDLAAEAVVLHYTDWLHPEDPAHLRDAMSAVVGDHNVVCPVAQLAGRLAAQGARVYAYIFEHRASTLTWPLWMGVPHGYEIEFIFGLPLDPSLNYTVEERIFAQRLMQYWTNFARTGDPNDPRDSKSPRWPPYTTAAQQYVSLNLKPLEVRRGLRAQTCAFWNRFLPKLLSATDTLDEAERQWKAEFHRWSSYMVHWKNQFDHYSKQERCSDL

[2] = target: T2, Acetylcholinesterase (Rattus norvegicus, UniProt P37136); experiment: as §1
T2 sequence (P37136 whole entry): T1 sequence (whole entry)

SMILES: c1ccc2c(NCCCCCCCN3CCCCC3)c3c(nc2c1)CCCC3
- Imax [1]: 95%
- pIC50 [2]: 7.69
